Measured values as given in US9670162B2, “Mitochondrial aldehyde dehyrogenase-2 modulators and methods of use thereof” (The Board of Trustees of the Leland Stanford Junior …, priority 2013, dated 2017).

Assays:
[1] = tested on: mice treated with PO 5 g/kg of EtOH; assay: Mouse pharmacodynamics (PD) study after EtOH; assay type: in vivo
Experimental: Mice (male C57BL6 (8 to 9 weeks, 20-22 g)) were treated with PO […] of EtOH. Then PO 40 mg/kg or 60 mg/kg compound 161 were administered to the mice. […] FIG. 6 is a graph showing the behavior of mice at 120 min, 180 min, and 300 min. FIG. 7 is a graph showing the alcohol concentration (mg/dL) at 75 min and 180 min.
A PD study of IV administration of compound 161 was also carried out. The mice were treated with PO 5 g/kg of alcohol and were then treated with 10 mg/kg of compound 161 administered through IV. […] FIG. 8 is a graph showing the blood alcohol concentration (mg/dL) versus time (hr).

CYP2C19 = CYP2C19 (Homo sapiens, UniProt P33261); assay: Cyp inhibition 2C19; assay type: in vitro ADME; parameters: inhibition: dose or concentration left out as unconfirmed
Sequence of CYP2C19 (P33261 whole entry): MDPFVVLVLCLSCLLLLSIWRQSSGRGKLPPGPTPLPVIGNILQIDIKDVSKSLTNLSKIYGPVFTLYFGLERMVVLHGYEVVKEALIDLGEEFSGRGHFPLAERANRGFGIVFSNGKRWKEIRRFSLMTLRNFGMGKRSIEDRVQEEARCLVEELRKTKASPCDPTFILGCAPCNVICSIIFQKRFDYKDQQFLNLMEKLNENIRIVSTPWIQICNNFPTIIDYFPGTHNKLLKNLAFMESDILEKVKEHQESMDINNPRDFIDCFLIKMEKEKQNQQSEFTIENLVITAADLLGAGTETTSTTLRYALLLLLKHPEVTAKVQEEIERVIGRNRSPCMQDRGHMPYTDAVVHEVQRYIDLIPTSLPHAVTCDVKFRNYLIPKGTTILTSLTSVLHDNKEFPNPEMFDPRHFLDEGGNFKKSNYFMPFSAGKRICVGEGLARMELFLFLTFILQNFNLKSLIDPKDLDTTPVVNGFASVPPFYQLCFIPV
Experimental: (§1) In vitro ADMET of compounds of the present disclosure was carried out according to known methods in the art. Below are data for certain compounds of the present disclosure.

CYP2C9 = CYP2C9 (Homo sapiens, UniProt P11712); assay: Cyp inhibition 2C9; assay type: in vitro ADME
Sequence of CYP2C9 (P11712 whole entry): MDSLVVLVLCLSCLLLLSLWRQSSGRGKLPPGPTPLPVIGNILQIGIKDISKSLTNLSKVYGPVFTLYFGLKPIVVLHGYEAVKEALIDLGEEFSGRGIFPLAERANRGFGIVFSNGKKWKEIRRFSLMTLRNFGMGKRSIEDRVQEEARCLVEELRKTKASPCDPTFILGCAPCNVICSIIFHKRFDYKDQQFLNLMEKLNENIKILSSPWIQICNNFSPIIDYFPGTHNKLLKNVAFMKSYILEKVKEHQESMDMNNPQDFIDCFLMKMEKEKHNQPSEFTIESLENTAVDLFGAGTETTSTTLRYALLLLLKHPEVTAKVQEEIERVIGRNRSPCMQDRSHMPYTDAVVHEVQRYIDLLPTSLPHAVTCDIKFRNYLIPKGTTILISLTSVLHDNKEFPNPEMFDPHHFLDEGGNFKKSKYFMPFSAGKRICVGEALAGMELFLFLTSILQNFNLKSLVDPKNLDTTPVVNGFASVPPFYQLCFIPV
Experimental: as §1

RLM stability T1/2 = assay type: in vitro ADME; conditions: rat, liver microsomes
Experimental: as §1

NHPLM stability T1/2 = assay type: in vitro ADME; conditions: monkey, liver microsomes
Experimental: as §1

CYP2D6 = CYP2D6 (Homo sapiens, UniProt P10635); assay: Cyp inhibition 2D6; assay type: in vitro ADME
Sequence of CYP2D6 (P10635 whole entry): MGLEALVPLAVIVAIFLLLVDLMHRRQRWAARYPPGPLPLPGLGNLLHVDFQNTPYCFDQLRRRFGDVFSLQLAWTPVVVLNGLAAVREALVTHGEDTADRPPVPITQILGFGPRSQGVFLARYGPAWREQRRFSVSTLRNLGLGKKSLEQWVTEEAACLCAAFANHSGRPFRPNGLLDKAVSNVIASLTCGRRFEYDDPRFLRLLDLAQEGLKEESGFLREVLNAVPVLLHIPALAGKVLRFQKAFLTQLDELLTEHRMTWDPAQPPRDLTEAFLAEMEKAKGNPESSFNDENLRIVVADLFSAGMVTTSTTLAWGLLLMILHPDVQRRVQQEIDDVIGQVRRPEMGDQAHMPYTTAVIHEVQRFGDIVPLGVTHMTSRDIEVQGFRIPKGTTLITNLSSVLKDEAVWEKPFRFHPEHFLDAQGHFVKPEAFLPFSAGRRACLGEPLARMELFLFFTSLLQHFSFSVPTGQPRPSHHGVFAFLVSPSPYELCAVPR
Experimental: as §1

[2] = molecular target: T1, human ALDH2*2 recombinant mutant enzyme (E487K) (Homo sapiens, UniProt P05091, E504K); assay: ALDH2 enzymatic assay (NADH at 340 nm), recombinant mutant enzyme; assay type: biochemical; parameters: key: −: no activation or inhibition; +: activation less than control 1; ++: activation similar to control 1, within 10%; +++: activation more than control 1 and less than control (compound 161); ++++: activation similar to compound 161, within 10%; conditions: activation relative to benchmarks control 1 and compound 161
T1 construct: His-tag (pTrcHis vector) (N); made in house; host or cells: E. coli BL21
T1 sequence (P05091 18-517 E504K): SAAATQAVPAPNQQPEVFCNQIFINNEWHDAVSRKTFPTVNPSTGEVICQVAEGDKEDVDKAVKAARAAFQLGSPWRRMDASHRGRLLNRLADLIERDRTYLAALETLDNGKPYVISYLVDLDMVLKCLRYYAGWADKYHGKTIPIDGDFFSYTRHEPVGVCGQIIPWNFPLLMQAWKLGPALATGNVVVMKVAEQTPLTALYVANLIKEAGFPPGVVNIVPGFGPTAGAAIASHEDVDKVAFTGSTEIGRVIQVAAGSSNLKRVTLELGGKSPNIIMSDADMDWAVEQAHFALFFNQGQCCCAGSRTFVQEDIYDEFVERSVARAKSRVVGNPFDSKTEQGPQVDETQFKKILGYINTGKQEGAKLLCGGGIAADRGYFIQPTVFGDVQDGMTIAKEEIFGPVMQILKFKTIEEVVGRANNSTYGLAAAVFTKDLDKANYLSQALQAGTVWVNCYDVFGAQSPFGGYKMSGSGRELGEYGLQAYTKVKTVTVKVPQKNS

[3] = tested on: unpurified human liver homogenates (liver mitochondria fraction), ALDH; assay: ALDH activity in human liver biopsy samples; assay type: biochemical; conditions: 20 μM, acetaldehyde substrate, 750 μg protein
Experimental: The study of compounds of the present disclosure on unpurified human liver homogenates was carried out according to methods known in the art. Briefly, 750 μg of the total unpurified protein from the liver mitochondria fraction was used in this assay. The kinetic increase of absorbance at λ340 nm was monitored for 15 minutes for NADH. For the first 3 minutes, the assay was carried in the absence of the substrate or AD-363 to establish the base line. As expected, no NADH production was detected. Substrate acetaldehyde was then added at the 3-min time point and the reaction monitored for the next 6 min to record the catalytic rate in the absence of an activator. Compound 161 (20 μM), was then added at the 9-min time point and the reaction monitored for the next 6 min to record the increase in catalytic rate.

Caco-2 permeability = assay type: in vitro ADME; conditions: human
Experimental: as §1

Plasma stability, human = assay type: in vitro ADME
Experimental: as §1

Aqueous solubility = assay type: physicochemical
Experimental: as §1

CYP3A4 = CYP3A4 (Homo sapiens, UniProt P08684); assay: Cyp inhibition 3A4; assay type: in vitro ADME; parameters: inhibition: dose or concentration left out as unconfirmed
Sequence of CYP3A4 (P08684 whole entry): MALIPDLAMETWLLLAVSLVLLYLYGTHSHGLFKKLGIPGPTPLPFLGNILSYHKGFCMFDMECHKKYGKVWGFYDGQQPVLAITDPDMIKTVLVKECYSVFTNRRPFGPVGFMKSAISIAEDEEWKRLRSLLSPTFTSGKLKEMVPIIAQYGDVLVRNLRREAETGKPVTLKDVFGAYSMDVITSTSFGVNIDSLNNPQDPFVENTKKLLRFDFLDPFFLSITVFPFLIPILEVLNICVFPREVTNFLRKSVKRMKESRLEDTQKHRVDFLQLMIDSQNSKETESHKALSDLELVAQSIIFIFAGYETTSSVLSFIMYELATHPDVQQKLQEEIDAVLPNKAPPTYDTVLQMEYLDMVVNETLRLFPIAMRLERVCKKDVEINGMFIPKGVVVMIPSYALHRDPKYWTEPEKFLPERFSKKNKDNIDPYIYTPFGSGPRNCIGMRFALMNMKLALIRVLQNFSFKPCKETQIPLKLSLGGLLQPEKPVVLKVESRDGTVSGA
Experimental: as §1

MLM stability T1/2 = assay type: in vitro ADME; conditions: mouse, liver microsomes
Experimental: as §1

inhibition (CYP2C19): 16%
inhibition at 10 µM (CYP2C19; 10 μM): 15.9%
inhibition at 10 µM (CYP2C9): 5.7%
half-life (RLM stability T1/2): 0.974 min
half-life (NHPLM stability T1/2): 2.54 min
inhibition at 10 µM (CYP2D6): 6.4%
ALDH2 (mutant) [2]: ++++
increase of human liver enzyme's catalytic rate [3]: 2.38 folds
Papp A→B (Caco-2 permeability; A-B, read-out: absorption (Caco-2, Papp, A-B)): 15.7 ×10⁻⁶ cm/s
Papp B→A (Caco-2 permeability; B-A): 10.7 ×10⁻⁶ cm/s
efflux ratio (Caco-2 permeability; ratio, read-out: Caco-2 Papp B-A/A-B): 0.68
plasma stability (human, 5 h) (Plasma stability, human; 5 h): 100%
Plasma stability Human (Plasma stability, human; plasma): 100%
Aqu. Solu. (Aqueous solubility): 28 µg/mL
inhibition (CYP3A4): 15%
inhibition at 10 µM (CYP3A4; 10 μM): 14.9%
half-life (MLM stability T1/2): 2.08 min
SMILES: COc1ccc(CNC(=O)c2c(Cl)ccnc2OCC2CC2)cc1F [Compound 161]
blood alcohol levels ([1]; PO 5 g/kg EtOH, compound PO 40 mg/kg or 60 mg/kg): reduces blood alcohol levels
blood alcohol levels ([1]; PO 5 g/kg alcohol, compound 10 mg/kg IV): reduces blood alcohol levels
PD response (behavior observation) ([1]; PO EtOH, then PO 40 mg/kg or 60 mg/kg): significant PD response
